Measurements from patent US20230346827A1 (priority 2020, published 2023).

Tested on: rats subjected to sTBI
Experiment: sTBI rats, LMW-DS 1, 5, 15 mg/kg s.c. 30 min post-TBI: HPLC of brain energy metabolites, antioxidants, oxidative/nitrosative stress biomarkers (Example 4)
Assay type: in vivo, rat
Details: for ATP/ADP / NAD+/NADH: adimensional ratio
Method: Male Wistar rats (n=160) of 300-350 g body weight were used in this study. They were fed with standard laboratory diet and water ad libitum in a controlled environment.
As the accepted anesthetic mixture, animals received 35 mg/kg b.w. ketamine and 0.25 mg/kg body weight midazolam by intramuscular injection. Diffuse sTBI was induced according to the “weight drop” impact acceleration model set up by Marmarou et al. J. Neurosurg. 1994, 80: 291-300. This model causes diffuse axonal injury and it is able to reproduce the physical and mechanical characteristics of the diffuse TBI in humans.
Severe TBI was induced by dropping a 450 g weight from 2 meters height onto the rat head protected by a helmet (metal disk previously fixed on the skull using dental cement) in order to uniformly distribute the mechanical force to the brain. Rats were placed prone on a bed of specific polyurethane foam inserted in a special container; this foam dissipates the major part of the potential energy (deriving from the mechanical forces) and prevents any rebound of the animal after the impact that could produce spinal damages.
After 2 or 7 days from TBI induction, rats were anesthetized again and then immediately sacrificed. These time points are coincident with the worst biochemical derangement (2 days) or, in the case of a mildly injured brain, with a full metabolic recovery (7 days).
The drug treatment consisted in a subcutaneous injection of 0.5 ml of LMW-DS (ILB®, Tikomed, Viken, Sweden, WO 2016/076780) and administered at 3 different concentrations (1, 5 and 15 mg/kg body weight), according to the schematic protocol described below. Sham-operated animals underwent the same procedure of anesthesia but TBI and were used as the control group.
(§1) Rats subjected to sTBI and receiving a single administration of LMW-DS after 30 minutes post-TBI, with sacrifice at 2 days post-TBI. Animals were divided in the following subgroups: • 1. 12 animals subjected to sTBI and treated with 1 mg/kg b.w. LMW-DS • 2. 12 animals subjected to sTBI and treated with 5 mg/kg b.w. LMW-DS • 3. 12 animals subjected to sTBI and treated with 15 mg/kg b.w. LMW-DS
as §1, with “at 7” for “at 2”
Rats (n = 12) subjected to sTBI and receiving repeated administrations of the maximal dose of LMW-DS (15 mg/kg b.w.) after 30 minutes, 3 days and 5 days post-TBI, with sacrifice at 7 days post-TBI. Four additional rats were used for the histo-morphological studies. Total rats in this group: n=16
To minimize metabolite loss, an in vivo craniectomy was performed in all animals during anesthesia. The rat skull was carefully removed, the brain was exposed, sharply cut along the sagittal fissure and the two hemispheres were separated. The hemispheres dedicated to biochemical analyses were freeze-clamped by aluminum tongues pre-cooled in liquid nitrogen and then immersed in liquid nitrogen. The freeze-clamping procedure was introduced to accelerate freezing of the tissue, thus minimizing potential metabolite loss.
Tissue homogenization for metabolite analyses was effected as described below. After the wet weight (w.w.) determination, the frozen hemispheres were placed into 7 ml of ice-cold, nitrogen-saturated, precipitating solution (1:10 w/v) composed by CH3CN + 10 mM KH2PO4, pH 7.40, (3:1; v:v), and the homogenization was performed using an Ultra-Turrax homogenizer set at 24,000 rpm/min (Janke & Kunkel, Staufen, Germany). […]

[1] = 15 mg/kg repeated, 7 d post-sTBI

**Q.** What does the source list for sodium salt of dextran sulfate [LMW-DS]?
**A.** Malonyl-CoA (5 mg/kg, 7 d post-sTBI): 6.02 ± 1.09 nmol/g w.w.; NADH (5 mg/kg, 7 d post-sTBI): 8.83 ± 1.26 nmol/g w.w.; NADPH (5 mg/kg, 7 d post-sTBI): 12.30 ± 2.86 nmol/g w.w.; NADP^+ (5 mg/kg, 7 d post-sTBI): 24.45 ± 8.97 nmol/g w.w.; NAD^+ (5 mg/kg, 7 d post-sTBI): 293.36 ± 41.55 nmol/g w.w.; NO2 (5 mg/kg, 7 d post-sTBI): 59.61 ± 12.91 nmol/g w.w.; NO3 (5 mg/kg, 7 d post-sTBI): 234.45 ± 40.05 nmol/g w.w.; UDP (5 mg/kg, 7 d post-sTBI): 44.19 ± 6.22 nmol/g w.w.; UDP-Gal (5 mg/kg, 7 d post-sTBI): 132.66 ± 9.12 nmol/g w.w.; UDP-GalNac (5 mg/kg, 7 d post-sTBI): 17.37 ± 4.98 nmol/g w.w.; UDP-Glc (5 mg/kg, 7 d post-sTBI): 58.10 ± 11.81 nmol/g w.w.; UDP-GlcNac (5 mg/kg, 7 d post-sTBI): 85.14 ± 29.45 nmol/g w.w.; UMP (5 mg/kg, 7 d post-sTBI): 167.18 ± 32.39 nmol/g w.w.; URACIL (5 mg/kg, 7 d post-sTBI): 18.34 ± 3.77 nmol/g w.w.; URIC ACID (5 mg/kg, 7 d post-sTBI): 17.26 ± 4.11 nmol/g w.w.; URIDINE (5 mg/kg, 7 d post-sTBI): 134.60 ± 31.89 nmol/g w.w.; UTP (5 mg/kg, 7 d post-sTBI): 175.02 ± 30.65 nmol/g w.w.; XANTHINE (5 mg/kg, 7 d post-sTBI): 14.33 ± 4.05 nmol/g w.w.; β-PSEUDOURIDINE (5 mg/kg, 7 d post-sTBI): 17.51 ± 3.25 nmol/g w.w.; ATP/ADP (5 mg/kg, 7 d post-sTBI): 6.28 ± 0.80; NAD+/NADH (5 mg/kg, 7 d post-sTBI): 33.90 ± 7.19; ADENOSINE [1]: 40.84 ± 30.25 nmol/g w.w.; ADP [1]: 260.32 ± 34.67 nmol/g w.w.; ADP-Ribose [1]: 13.23 ± 3.32 nmol/g w.w.; AMP [1]: 43.12 ± 3.39 nmol/g w.w.; ASCORBIC ACID [1]: 2617.09 ± 315.18 nmol/g w.w.; ATP [1]: 1971.17 ± 158.57 nmol/g w.w.; Acetyl-CoA [1]: 37.91 ± 6.46 nmol/g w.w.; CDP choline [1]: 11.72 ± 3.76 nmol/g w.w.; CMP [1]: 31.21 ± 13.28 nmol/g w.w.; CREATININE [1]: 9.07 ± 1.60 nmol/g w.w.; CTP [1]: 92.67 ± 16.27 nmol/g w.w.; CYTIDINE [1]: 72.85 ± 25.63 nmol/g w.w.; CYTOSINE [1]: 8.76 ± 1.88 nmol/g w.w.; CoA-SH [1]: 45.76 ± 5.87 nmol/g w.w.; GDP [1]: 109.06 ± 12.46 nmol/g w.w.; GDP Glucose [1]: 106.42 ± 12.45 nmol/g w.w.; GMP [1]: 61.86 ± 29.28 nmol/g w.w.; GSH [1]: 2342.03 ± 308.72 nmol/g w.w.; GTP [1]: 466.06 ± 42.38 nmol/g w.w.; GUANINE [1]: 3.32 ± 1.41 nmol/g w.w.; GUANOSINE [1]: 19.66 ± 4.10 nmol/g w.w.; HYPOXANTHINE [1]: 4.10 ± 1.19 nmol/g w.w.; IMP [1]: 141.84 ± 36.32 nmol/g w.w.; INOSINE [1]: 139.26 ± 15.62 nmol/g w.w.; MDA [1]: 4.09 ± 0.67 nmol/g w.w.; Malonyl-CoA [1]: 12.56 ± 2.27 nmol/g w.w.; NADH [1]: 11.05 ± 1.52 nmol/g w.w.; NADPH [1]: 11.21 ± 2.60 nmol/g w.w.; NADP^+ [1]: 16.56 ± 6.08 nmol/g w.w.; NAD^+ [1]: 401.73 ± 56.89 nmol/g w.w.; NO2 [1]: 130.69 ± 28.31 nmol/g w.w.; NO3 [1]: 271.69 ± 46.41 nmol/g w.w.; UDP [1]: 37.12 ± 5.22 nmol/g w.w.; UDP-Gal [1]: 135.15 ± 9.29 nmol/g w.w.; UDP-GalNac [1]: 16.50 ± 4.73 nmol/g w.w.; UDP-Glc [1]: 61.37 ± 12.47 nmol/g w.w.; UDP-GlcNac [1]: 86.42 ± 29.89 nmol/g w.w.; UMP [1]: 107.66 ± 20.86 nmol/g w.w.; URACIL [1]: 24.13 ± 4.96 nmol/g w.w.; URIC ACID [1]: 7.80 ± 1.86 nmol/g w.w.; URIDINE [1]: 97.21 ± 23.03 nmol/g w.w.; UTP [1]: 133.72 ± 23.42 nmol/g w.w.; XANTHINE [1]: 11.24 ± 3.18 nmol/g w.w.; β-PSEUDOURIDINE [1]: 16.72 ± 3.10 nmol/g w.w.; ATP/ADP [1]: 7.67 ± 0.97; NAD+/NADH [1]: 37.47 ± 9.46; ADENOSINE (15 mg/kg, 2 d post-sTBI): 53.25 ± 12.75 nmol/g w.w.; ADP (15 mg/kg, 2 d post-sTBI): 346.37 ± 29.79 nmol/g w.w.; ADP-Ribose (15 mg/kg, 2 d post-sTBI): 23.06 ± 4.63 nmol/g w.w.; AMP (15 mg/kg, 2 d post-sTBI): 66.26 ± 10.74 nmol/g w.w.; ASCORBIC ACID (15 mg/kg, 2 d post-sTBI): 2783.04 ± 160.17 nmol/g w.w.; ATP (15 mg/kg, 2 d post-sTBI): 1556.54 ± 91.20 nmol/g w.w.; Acetyl-CoA (15 mg/kg, 2 d post-sTBI): 32.38 ± 3.77 nmol/g w.w.; CDP choline (15 mg/kg, 2 d post-sTBI): 7.07 ± 1.05 nmol/g w.w.; CMP (15 mg/kg, 2 d post-sTBI): 25.61 ± 5.23 nmol/g w.w.; CREATININE (15 mg/kg, 2 d post-sTBI): 11.77 ± 2.19 nmol/g w.w.; CTP (15 mg/kg, 2 d post-sTBI): 37.53 ± 7.59 nmol/g w.w.; CYTIDINE (15 mg/kg, 2 d post-sTBI): 11.46 ± 2.07 nmol/g w.w.; CYTOSINE (15 mg/kg, 2 d post-sTBI): 13.57 ± 1.66 nmol/g w.w.; CoA-SH (15 mg/kg, 2 d post-sTBI): 9.35 ± 1.03 nmol/g w.w.
